Measurements published in the supplement of paper PMC5908809.

Assays:
Assay in all cases: percent inhibition of viability; higher = more inhibition
[1] = tested on: normal primary NK cells, pool 1 (3 donors), resting (IL-2 0 ng/mL); details: 72 h
NKL (IL-2 2.5 ng/mL) = details: 72 h
[2] = tested on: normal primary NK cells, pool 1 (3 donors) (IL-2 2.5 ng/mL); details: 72 h
[3] = tested on: normal primary NK cells, pool 3 (3 donors) (IL-2 2.5 ng/mL); details: 72 h
IMC-1 (IL-2 20 ng/mL) = details: 72 h
SNK-6 (IL-2 2.5 ng/mL) = details: 72 h
KHYG-1 (IL-2 2.5 ng/mL) = details: 72 h
DERL-7 (IL-2 2.5 ng/mL) = details: 72 h
[4] = tested on: normal NK cells expanded with K562-aAPC; details: 72 h, IL-2 2.5 ng/mL
Method: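 Drug sensitivity and resistance testing on K562-aAPC-expanded normal NK cells: 5 concentrations (10-fold steps over a 10,000-fold range), 72 h at 37 °C, viability by CellTiter-Glo normalised to DMSO and benzethonium chloride controls; DSS from the fitted curve.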

Nc1ccccc1NC(=O)c1ccc(CNC(=O)OCc2cccnc2)cc1 [Entinostat] (max concentration tested 10000 nM)
percent inhibition of viability [%]
Details	DERL-7 (IL-2 2.5 ng/mL)	IMC-1 (IL-2 20 ng/mL)	KHYG-1 (IL-2 2.5 ng/mL)	NKL (IL-2 2.5 ng/mL)	SNK-6 (IL-2 2.5 ng/mL)	[1]	[2]	[3]	[4]
1 nM	0.45	2.59	-9.03	-7.74	9.17	–	-1.3	-13.6	-3.4
10 nM	2.75	0.46	-10.2	-3.03	8.55	–	1.71	-2.26	0.57
100 nM	-7.22	1.95	-4.46	2.66	15.6	–	4.63	-9.76	-3.46
1000 nM	24.5	10.1	50.8	77.8	65	61.1	34.1	3.4	17.8
10000 nM	99.7	99.8	95.8	94	95.2	92.3	97.6	97.7	99.5
